The results in this text go back to patent publication US9493461B2, “Tetracyclic heterocycle compounds and methods of use thereof for the treatment of hepatitis C” (priority 2013, dated 2016).

SMILES strings stand for the structures.

The test system of one experiment is HCV replicon genotype 1a. The experiment in a line: HCV replicon assay, genotype 1a (cell ELISA for replicon-encoded NS3/4A). Format: cell-based, hepatitis C virus (HCV). As to conditions: Hepatitis C virus, 96 h, read-out: 1a IC50 (nM), genotype 1a replicon cells, 96 hours incubation, NS3/4A ELISA readout, % of DMSO control. The procedure, abridged: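 Stable G418-selected neomycin-resistant HCV replicon cells were plated with serially diluted compound without G418 and incubated 96 h. After washing and lysis, replicon RNA was measured indirectly by cell ELISA for replicon-encoded NS3/4A; IC50 from four-parameter fit relative to DMSO control.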
On the technique in general: A replicon is a self-replicating genome or part of one, used to study replication in cells.

The subject of a further experiment is HCV replicon genotype 1b. Nature of the experiment: HCV replicon assay, genotype 1b (cell ELISA for replicon-encoded NS3/4A). As to conditions: Hepatitis C virus, 96 h, read-out: 1b IC50 (nM), genotype 1b replicon cells, 96 hours incubation, NS3/4A ELISA readout, % of DMSO control. The format is cell-based, hepatitis C virus (HCV). The method, boiled down: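 Genotype 1b replicon cells (neomycin-selected, G418 removed for assay) incubated 96 h with compound dilution series. Replication measured by cell ELISA for replicon-encoded NS3/4A after lysis; IC50 from four-parameter fit relative to DMSO control.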

Regarding `CCn1cc(-c2oc3cc(N(C)S(C)(=O)=O)c(-c4ccc5nc(CN6CC(F)C6)n6c7cccc(F)c7cc6c5n4)cc3c2C(=O)NC)cn1` [Example 32], the IC50 in the experiment with HCV replicon genotype 1a turned out to be 18.6 nM; in the experiment on HCV replicon genotype 1b it was 8.23 nM.
For `CNC(=O)c1c(-c2ccc(F)cc2)oc2cc(N(C)S(C)(=O)=O)c(-c3ccc4c(n3)-c3cc5c(F)cccc5n3C(C)(C)N4)cc12` [Example 66, 5-(11-fluoro-6,6-dimethyl-5,6-dihydropyrido[3′,2′:4,5]pyrimido[1,6-a]indol-2-yl)-2-(4-fluorophenyl)-N-methyl-6-(N-methylmethylsulfonamido)benzofuran-3-carboxamide], the IC50 in the experiment on HCV replicon genotype 1a stood at 5.96 nM; with HCV replicon genotype 1b it was 9.23 nM.
Consider `CNC(=O)c1c(-c2ccc(C(F)(F)F)nc2)oc2cc(N(C)S(C)(=O)=O)c(-c3cc4c(cn3)ncn3c5cccc(F)c5cc43)cc12` [Example 17, 5-(11-fluoropyrido[3′,4′:4,5]pyrimido[1,6-a]indol-2-yl)-N-methyl-6-(N-methylmethylsulfonamido)-2-(6-(trifluoromethyl)pyridin-3-yl)benzofuran-3-carboxamide], for which the IC50 in the experiment on HCV replicon genotype 1a worked out at 1.27 nM; in the experiment with HCV replicon genotype 1b, 1.78 nM.
Consider `CNC(=O)c1c(-c2ccc(F)cc2)oc2cc(N(C)S(C)(=O)=O)c(-c3ccc4nc(CN5CC(CC(F)(F)F)C5)n5c6cccc(C#N)c6cc5c4n3)cc12` [Example 136], for which the IC50 with HCV replicon genotype 1a is 6.6 nM; in the experiment with HCV replicon genotype 1b, 10.6 nM.
In the case of `CNC(=O)c1c(-c2ccc(F)cc2)oc2cc(N(C)S(C)(=O)=O)c(-c3ccc4c(n3)-c3cc5c(F)cccc5n3CN4CC(=O)OC)cc12` [Example 69, methyl 2-(11-fluoro-2-(2-(4-fluorophenyl)-3-(methylcarbamoyl)-6-(N-methylmethylsulfonamido)benzofuran-5-yl)pyrido[3′,2′:4,5]pyrimido[1,6-a]indol-5(6H)-yl)acetate], the results for the IC50 in the experiment on HCV replicon genotype 1a and in the experiment with HCV replicon genotype 1b were 9.69 nM and 6.04 nM, respectively.
Regarding `CNC(=O)c1c(-c2ccc(F)cc2)oc2cc(N(C)S(C)(=O)=O)c(-c3ccc4c(n3)-c3cc5c(F)cccc5n3C(CC(=O)OC)N4)cc12` (stereo not drawn) [Example 71, methyl 2-(11-fluoro-2-(2-(4-fluorophenyl)-3-(methylcarbamoyl)-6-(N-methylmethylsulfonamido)benzofuran-5-yl)-5,6-dihydropyrido[3′,2′:4,5]pyrimido[1,6-a]indol-6-yl)acetate], the values for the IC50 in the experiment with HCV replicon genotype 1a and in the experiment on HCV replicon genotype 1b were 2.98 nM and 3.44 nM, respectively.
As to `CNC(=O)c1c(-c2ccc(F)cc2)oc2cc(N(C)S(C)(=O)=O)c(-c3ccc4nc(CN5[C@H](C)COC[C@@H]5C)n5c6cccc(F)c6cc5c4n3)cc12` [Example 96], the IC50 in the experiment with HCV replicon genotype 1a came to 7.76 nM; in the experiment with HCV replicon genotype 1b it was 11.2 nM.
The matching figures for `CNC(=O)c1c(-c2ccc(OC(F)F)nc2)oc2cc(N(C)S(C)(=O)=O)c(-c3cc4c(cn3)ncn3c5cccc(F)c5cc43)cc12` [Example 18]: 1.06 nM and 1.86 nM.
For `CNC(=O)c1c(-n2ccc(C)cc2=O)oc2cc(N(C)S(C)(=O)=O)c(-c3ccc4nc(CN5CC(F)C5)n5c6cccc(F)c6cc5c4n3)cc12` [Example 30], the IC50 in the experiment on HCV replicon genotype 1a turned out to be 2.41 nM; in the experiment with HCV replicon genotype 1b, 2.32 nM.
On to `CNC(=O)c1c(-c2ccc(F)cc2)oc2cc(N(C)S(C)(=O)=O)c(-c3ccc4nc(CN5CC(OC)C5)n5c6cccc(F)c6cc5c4n3)cc12` [Example 88], for which the IC50 in the experiment on HCV replicon genotype 1a was 4.09 nM; with HCV replicon genotype 1b, 4.22 nM.
Regarding `CNC(=O)c1c(-c2ccc(F)cc2)oc2cc(N(C)S(C)(=O)=O)c(-c3ccc4nc(CN5CCC(F)(F)C5)n5c6cccc(F)c6cc5c4n3)cc12` [Example 82], the IC50 turned out to be 2.74 nM with HCV replicon genotype 1a and 2.45 nM in the experiment on HCV replicon genotype 1b.
Turning to `CNC(=O)c1c(-c2ccc(F)cc2)oc2cc(N(C)S(C)(=O)=O)c(-c3ccc4c(n3)-c3cc5c(F)cccc5n3C(C)N4)cc12` (stereo not drawn) [Example 61, 5-(11-fluoro-6-methyl-5,6-dihydropyrido[3′,2′:4,5]pyrimido[1,6-a]indol-2-yl)-2-(4-fluorophenyl)-N-methyl-6-(N-methylmethylsulfonamido)benzofuran-3-carboxamide], the IC50 turned out to be 2.6 nM in the experiment with HCV replicon genotype 1a and 3.01 nM in the experiment with HCV replicon genotype 1b.
Regarding `CNC(=O)c1c(-c2ccc(F)cc2)oc2cc(N(C)S(C)(=O)=O)c(-c3ccc4nc(CN5CCOCC5)n5c6cccc(C#N)c6cc5c4n3)cc12` [Example 134], the IC50 is 2.6 nM with HCV replicon genotype 1a and 2.02 nM in the experiment with HCV replicon genotype 1b.
In the case of `CNC(=O)c1c(-c2ccc(F)cc2F)oc2cc(N(C)S(C)(=O)=O)c(-c3ccc4nc(CN5CC(C)(F)C5)n5c6cccc(F)c6cc5c4n3)cc12` [Example 140], the IC50 was 2.95 nM in the experiment on HCV replicon genotype 1a and 4.31 nM in the experiment on HCV replicon genotype 1b.
The matching figures for `CNC(=O)c1c2cc(-c3ccc4ncn5c6cccc(F)c6cc5c4n3)c(N(C)S(C)(=O)=O)cc2nn1-c1ccc(F)cc1` [Example 15, 2-(4-fluorophenyl)-5-(11-fluoropyrido[3′,2′:4,5]pyrimido[1,6-a]indol-2-yl)-N-methyl-6-(N-methylmethylsulfonamido)-2H-indazole-3-carboxamide]: 3.04 nM and 5.27 nM.
Consider `CNC(=O)c1c(-c2ccc(F)cc2)oc2cc(N(C)S(C)(=O)=O)c(-c3ccc4nc(CN5CC(O)(C6CC6)C5)n5c6cccc(F)c6cc5c4n3)cc12` [Example 95], for which the results for the IC50 in the experiment on HCV replicon genotype 1a and with HCV replicon genotype 1b were 4.55 nM and 9.12 nM, respectively.
In the case of `CNC(=O)c1c(-c2ccc(F)cc2)oc2cc(N(C)S(C)(=O)=O)c(-c3cc4c(cn3)nc(CN3CCC(F)(F)C3)n3c5cccc(F)c5cc43)cc12` [Example 117], the results for the IC50 in the experiment on HCV replicon genotype 1a and in the experiment with HCV replicon genotype 1b were 3.49 nM and 5.01 nM, respectively.
Take `CNC(=O)c1c(-c2ccc(F)cc2)oc2cc(N(C)S(C)(=O)=O)c(-c3ccc4nc(CN5CC(C)(O)C5)n5c6cccc(F)c6cc5c4n3)cc12` [Example 78]: the IC50 with HCV replicon genotype 1a came out at 2.8 nM; in the experiment on HCV replicon genotype 1b, 3.34 nM.
`CNC(=O)c1c(-c2ccc(F)cc2)oc2cc(N(C)S(C)(=O)=O)c(-c3ccc4nc(CN5CC(O)(C(F)(F)F)C5)n5c6cccc(C#N)c6cc5c4n3)cc12` [Example 131]: the IC50 in the experiment with HCV replicon genotype 1a came out at 4.09 nM; in the experiment on HCV replicon genotype 1b, 4.23 nM.
In the case of `CNC(=O)c1c(-n2ccccc2=O)oc2cc(N(C)S(C)(=O)=O)c(-c3ccc4ncn5c6cccc(F)c6cc5c4n3)cc12` [Example 11, 5-(11-fluoropyrido[3′,2′:4,5]pyrimido[1,6-a]indol-2-yl)-N-methyl-6-(N-methylmethylsulfonamido)-2-(2-oxopyridin-1(2H)-yl)benzofuran-3-carboxamide], the IC50 in the experiment on HCV replicon genotype 1a worked out at 2.03 nM; with HCV replicon genotype 1b, 2.26 nM.
Take `CNC(=O)c1c(-c2ccc(F)cc2F)oc2cc(N(C)S(C)(=O)=O)c(-c3ccc4nc(CN5CCC[C@H]5C(F)(F)F)n5c6cccc(F)c6cc5c4n3)cc12` [Example 145]: the results for the IC50 in the experiment on HCV replicon genotype 1a and in the experiment with HCV replicon genotype 1b were 20 nM and 12.2 nM, respectively.
As for `CNC(=O)c1c(-c2ccc(F)cc2)oc2cc(N(C)S(C)(=O)=O)c(-c3ccc4ncn5c6ccc(F)cc6cc5c4n3)cc12` [Example 20, 2-(4-fluorophenyl)-5-(10-fluoropyrido[3′,2′:4,5]pyrimido[1,6-a]indol-2-yl)-N-methyl-6-(N-methylmethylsulfonamido)benzofuran-3-carboxamide], the values for the IC50 in the experiment with HCV replicon genotype 1a and with HCV replicon genotype 1b were 1.59 nM and 3.33 nM, respectively.
The matching figures for `CNC(=O)c1c(-c2ccc(F)cc2F)oc2cc(N(C)S(C)(=O)=O)c(-c3ccc4nc(CN5CC(S(C)(=O)=O)C5)n5c6cccc(F)c6cc5c4n3)cc12` [Example 149]: 3.38 nM and 2.49 nM.
With `CNC(=O)c1c(-c2ccc(F)nc2)oc2cc(N(C)S(C)(=O)=O)c(-c3ccc4ncn5c6cccc(F)c6cc5c4n3)cc12` [Example 7], the values for the IC50 in the experiment with HCV replicon genotype 1a and in the experiment on HCV replicon genotype 1b were 1.49 nM and 3.6 nM, respectively.
On to `CNC(=O)c1c(-c2ccc(F)cc2)oc2cc(N(C)S(C)(=O)=O)c(-c3ccc4nc(CN5CC[C@@H](F)C5)n5c6cccc(C#N)c6cc5c4n3)cc12` [Example 121], for which the figures for the IC50 in the experiment with HCV replicon genotype 1a and in the experiment on HCV replicon genotype 1b were 2.95 nM and 3.25 nM, respectively.
As to `CNC(=O)c1c(-c2ccc(F)cc2)oc2cc(N(C)S(C)(=O)=O)c(-c3ccc4nc(CN5CCOC(C(F)(F)F)C5)n5c6cccc(C#N)c6cc5c4n3)cc12` (stereo not drawn) [Example 129], the IC50 in the experiment with HCV replicon genotype 1a was 5.68 nM; in the experiment with HCV replicon genotype 1b, 6.95 nM.
The matching figures for `CNC(=O)c1c(-c2ccc(C)nc2)oc2cc(N(C)S(C)(=O)=O)c(-c3ccc4nc(CN5CC(F)C5)n5c6cccc(F)c6cc5c4n3)cc12` [Example 28, 5-(11-fluoro-6-((3-fluoroazetidin-1-yl)methyl)pyrido[3′,2′:4,5]pyrimido[1,6-a]indol-2-yl)-N-methyl-6-(N-methylmethylsulfonamido)-2-(6-methylpyridin-3-yl)benzofuran-3-carboxamide]: 15.2 nM and 5.38 nM.
As to `CNC(=O)c1c(-c2ccc(F)cc2)oc2cc(N(C)S(C)(=O)=O)c(-c3ccc4nc(Cn5cncn5)n5c6cccc(F)c6cc5c4n3)cc12` [Example 116], the IC50 in the experiment with HCV replicon genotype 1a amounted to 1.88 nM; in the experiment with HCV replicon genotype 1b it was 1.7 nM.
Regarding `CNC(=O)c1c(-c2ccc(F)cc2)oc2cc(N(C)S(C)(=O)=O)c(-c3ccc4nc(CN5CC(C)(F)C5)n5c6cccc(C#N)c6cc5c4n3)cc12` [Example 128], the IC50 is 2.3 nM in the experiment on HCV replicon genotype 1a and 2.98 nM in the experiment on HCV replicon genotype 1b.
For the compound `CNC(=O)c1c(-c2ccc(F)cc2)oc2cc(N(C)S(C)(=O)=O)c(-c3ccc4nc(CN5CC(C)C5)n5c6cccc(F)c6cc5c4n3)cc12` [Example 103], the IC50 with HCV replicon genotype 1a was determined as 2.05 nM; with HCV replicon genotype 1b, 5.27 nM.
